{
  "source": "the SangsterLogP compilation",
  "data": [
    {"test": "not given", "values": [
      {"smiles": "CCC(C)c1cccc(C(C)CC)c1O", "note": "(stereo unspecified)", "logP": 4.38},
      {"smiles": "[O-][n+]1cc(-c2ccccc2)ncc1-c1ccccc1", "logP": 3.27},
      {"smiles": "CC(=O)Nc1cnc2ccccc2n1", "logP": 1.53},
      {"smiles": "CCC(C)NC(=O)C(=Cc1ccccc1)SC", "note": "(stereo unspecified)", "logP": 3.53},
      {"smiles": "C[C@]1(O)CC[C@H]2[C@@H]3CCC4=CC(=O)CC[C@]4(C)[C@@]3(F)[C@@H](O)C[C@@]21C", "logP": 2.38},
      {"smiles": "O=NN(CCCl)C(=O)NC1CCCCCCCCCCC1", "logP": 5.64},
      {"smiles": "CCCCOc1ccc(O)cc1", "logP": 2.9},
      {"smiles": "O=NN(CCCl)C(=O)Nc1ccc(Cl)cc1", "logP": 3.16},
      {"smiles": "FC(F)(F)CN(CC(F)(F)F)c1ccccc1", "logP": 3.69},
      {"smiles": "CCC(C)NC(=O)C(C)=Cc1ccccc1", "note": "(stereo unspecified)", "logP": 3.08},
      {"smiles": "CC(=O)Nc1ccc2nccnc2c1", "logP": 1},
      {"smiles": "FC(F)(F)CN(CC(F)(F)F)c1ccc(Br)cc1", "logP": 4.7},
      {"smiles": "CCC(C)NC(=O)C(=Cc1ccccc1)NC(C)=O", "note": "(stereo unspecified)", "logP": 1.76},
      {"smiles": "CCC(C)NC(=O)C(C)=Cc1ccc(Cl)cc1", "note": "(stereo unspecified)", "logP": 3.63},
      {"smiles": "CCSC(=O)Oc1cccc2cccnc12", "logP": 2.74},
      {"smiles": "CCOC(=O)c1n[nH]c2ccc(CC)cc2c1=O", "logP": 2.01},
      {"smiles": "CCCC(=CC(=O)NC(C)CC)c1ccc(Cl)cc1", "note": "(stereo unspecified)", "logP": 4.34},
      {"smiles": "COc1ccnc(C#N)n1", "logP": 0.86},
      {"smiles": "CC12CC3(C)CC(C)(C1)CC(NC(=O)N(CCCl)N=O)(C2)C3", "logP": 5.75},
      {"smiles": "CC(=O)Nc1cccc2nccnc12", "logP": 1.06},
      {"smiles": "COc1cc(S(C)=O)ccc1-c1cn2cccnc2n1", "note": "(stereo unspecified)", "logP": 0.64},
      {"smiles": "O=NN(CCCl)C(=O)Nc1ccccc1", "logP": 2.49},
      {"smiles": "CCC(C)NC(=O)C=C(N)c1ccc(Cl)cc1", "note": "(stereo unspecified)", "logP": 2.85},
      {"smiles": "CCC(C)NC(=O)C(=Cc1ccccc1)NC(=O)c1ccccc1", "note": "(stereo unspecified)", "logP": 2.61},
      {"smiles": "CCC(C)NC(=O)C=C(c1ccccc1)c1ccc(Cl)cc1", "note": "(stereo unspecified)", "logP": 4.11},
      {"smiles": "COc1cccc(NC(=O)N(CCCl)N=O)c1", "logP": 2.66},
      {"smiles": "CCC(C)c1cccc(C(C)C)c1O", "note": "(stereo unspecified)", "logP": 3.85},
      {"smiles": "C[C@]12CCC(=O)C=C1CC[C@@H]1[C@@H]2C(=O)C[C@@]2(C)[C@H]1CC[C@]2(O)C(=O)CO", "logP": 1.64}
    ]},
    {"test": "method code SF, from Hansch, C. & Leo, A. (1987). Log P database [Dataset]. Pomona College Medicinal Chemistry Project.", "values": [
      {"smiles": "O=C(O)c1ccoc1", "logP": 1.03},
      {"smiles": "CSc1cccc(/N=N/N(C)C)c1", "logP": 2.98},
      {"smiles": "COP(=O)(OC)Oc1ccccc1", "logP": 1.22},
      {"smiles": "COc1ccccc1C=CC(=O)ON=Cc1ccc(OCCO)c(OC)c1", "logP": 3.56},
      {"smiles": "Cn1c(=O)cnc2ccccc21", "logP": 0.79},
      {"smiles": "CN(C)c1cnccn1", "logP": 0.96},
      {"smiles": "CN1C(=O)c2ccccc2C1=O", "logP": 1.31},
      {"smiles": "N#CN=[N+]([O-])c1cccc(C#N)c1", "logP": 1.15},
      {"smiles": "O=C1C=CC(=O)c2c(O)cccc21", "logP": 1.92},
      {"smiles": "CCCC(C(=O)OCCN(CC)CC)(c1ccccc1)c1ccccc1", "logP": 4.65},
      {"smiles": "FC(F)(F)Sc1ccccc1", "logP": 3.57},
      {"smiles": "Nc1ncc2ncn(COCCO)c2n1", "logP": -0.96},
      {"smiles": "CCOP(=S)(OCC)SCS(=O)C(C)(C)C", "note": "(stereo unspecified)", "logP": 2.21},
      {"smiles": "CCCCC1OC(=O)c2cc(Cl)ccc21", "note": "(stereo unspecified)", "logP": 3.53},
      {"smiles": "CCOP(=O)(OCC)Oc1ccc(SC)cc1", "logP": 2.79},
      {"smiles": "CC(=O)N[C@@H]1CC(=O)N(c2ccccc2)C1=O", "logP": -0.33},
      {"smiles": "CCOCC1CNc2nc(N)[nH]c(=O)c2N1", "note": "(stereo unspecified)", "logP": -0.68},
      {"smiles": "c1ccc2c(c1)CNc1ccccc1C2", "logP": 2.9},
      {"smiles": "CC(=NO)c1ccsc1", "logP": 1.81},
      {"smiles": "O=[N+]([O-])c1cccc2ncccc12", "logP": 1.86},
      {"smiles": "COc1ccccc1OC(C)=O", "logP": 1.38},
      {"smiles": "COc1ccc([N+]([O-])=NC#N)cc1", "logP": 2.15},
      {"smiles": "O=C1CN=C(c2ccc[nH]2)c2cc(Cl)ccc2N1", "logP": 2.59},
      {"smiles": "NC(=O)Nc1ccc(C(O)C(CO)NC(=O)C(Cl)Cl)cc1", "note": "(stereo unspecified)", "logP": -0.6},
      {"smiles": "NC(=O)c1cccc(F)c1", "logP": 0.91},
      {"smiles": "CC(=O)OC[C@@H](OC(C)=O)[C@@H](OC(C)=O)[C@H](OC(C)=O)[C@H](C=O)OC(C)=O", "logP": 0.63},
      {"smiles": "CCOC(=O)CC(=O)C=Cc1cccc(C)c1", "logP": 2.8},
      {"smiles": "O=[N+]([O-])c1ccc(O[C@@H]2O[C@H](CO)[C@@H](O[C@H]3O[C@H](CO)[C@@H](O)[C@H](O)[C@H]3O)[C@H](O)[C@H]2O)cc1", "logP": -1.39},
      {"smiles": "CCOc1ccccc1", "logP": 2.51},
      {"smiles": "CSc1nccc(O)n1", "logP": 0.22},
      {"smiles": "N#CN=[N+]([O-])c1ccccc1", "logP": 1.87},
      {"smiles": "CN(CCO)C1=C(N2CC2)C(=O)C(N(C)CCO)=C(N2CC2)C1=O", "logP": -0.37},
      {"smiles": "CCCCCCCNC(=O)c1ccccc1", "logP": 2.94}
    ]}
  ]
}
